The target of assay [1] is T1, MAGL (Mus musculus, UniProt O35678).
T1 construct: Proteomes (mouse brain membrane fraction or cell lysates); from tissue; host or cells: mouse brain membrane fraction (or cell lysates)
T1 sequence (O35678 1-303): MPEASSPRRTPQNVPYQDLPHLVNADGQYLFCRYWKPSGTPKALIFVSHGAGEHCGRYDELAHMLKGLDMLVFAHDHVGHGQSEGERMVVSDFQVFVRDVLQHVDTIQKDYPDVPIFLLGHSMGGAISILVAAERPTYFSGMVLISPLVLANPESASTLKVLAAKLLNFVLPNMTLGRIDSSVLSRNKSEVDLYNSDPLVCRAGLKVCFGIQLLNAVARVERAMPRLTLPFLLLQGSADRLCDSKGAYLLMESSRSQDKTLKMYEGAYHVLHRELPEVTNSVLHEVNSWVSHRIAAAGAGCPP
Nature of the assay: In vitro competitive activity-based protein profiling (mouse), MAGL gel band. The following applies: for IC50: mouse; for inhibition at 1 µM: read-out: MAGL % inh. 1 μM. Type of assay: biochemical. In a few lines: (§1)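 Competitive ABPP: inhibitors at varying concentrations were given 30 min at 37 °C with mouse brain membranes or cell lysates (1.0 mg/mL total protein) before 30 min labelling by FP-Rh or HT-01 (stock 50 μM in DMSO). Residual hydrolase activity read as in-gel fluorescence of MAGL and FAAH bands.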

The target of assay [2] is T2, FAAH (Mus musculus, UniProt O08914).
T2 construct: Proteomes (mouse brain membrane fraction or cell lysates); from tissue; host or cells: mouse brain membrane fraction (or cell lysates)
T2 sequence (O08914 1-579): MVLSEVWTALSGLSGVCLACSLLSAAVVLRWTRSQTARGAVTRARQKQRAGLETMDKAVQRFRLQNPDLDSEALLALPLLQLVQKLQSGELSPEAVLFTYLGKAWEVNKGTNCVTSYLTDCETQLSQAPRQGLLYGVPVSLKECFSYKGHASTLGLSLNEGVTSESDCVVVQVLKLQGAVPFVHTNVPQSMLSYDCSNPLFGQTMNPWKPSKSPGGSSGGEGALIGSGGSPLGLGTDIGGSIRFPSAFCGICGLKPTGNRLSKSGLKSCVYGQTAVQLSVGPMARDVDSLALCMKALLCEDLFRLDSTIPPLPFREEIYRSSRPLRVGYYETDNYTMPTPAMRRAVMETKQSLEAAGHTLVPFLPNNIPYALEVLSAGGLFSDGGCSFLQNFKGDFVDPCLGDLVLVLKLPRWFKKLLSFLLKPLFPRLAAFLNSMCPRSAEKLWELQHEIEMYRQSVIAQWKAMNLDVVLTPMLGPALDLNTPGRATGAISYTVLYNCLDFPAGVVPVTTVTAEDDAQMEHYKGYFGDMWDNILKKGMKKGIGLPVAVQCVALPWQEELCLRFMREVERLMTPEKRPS
Nature of the assay: In vitro competitive activity-based protein profiling (mouse), FAAH gel band. Type of assay: biochemical. The following applies: for IC50: mouse; for inhibition at 1 µM: read-out: FAAH % inh. 1 μM. In a few lines: as §1

In assay [3] the target is T1, MAGL. As to the kind of experiment: Mouse brain proteomes from inhibitor treated mice (oral gavage, sacrificed 4 h after administration). Format: in vivo. The following applies: read-out: MAGL % inh. 5 mg/kg. In a few lines: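 Wild-type C57Bl/6J mice got compound by oral gavage in polyethylene glycol vehicle. Brain proteomes were prepared 4 h after dosing and analyzed for serine hydrolase activity.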

Turning to `CC(=O)Nc1ccn(C(=O)N2CCC3(CCCN3Cc3ccc(C(F)(F)F)cc3Oc3cncnc3)CC2)n1` [Example 83, N-(1-(1-(2-(pyrimidin-5-yloxy)-4-(trifluoromethyl)benzyl)-1,8-diazaspiro[4.5]decane-8-carbonyl)-1H-pyrazol-3-yl)acetamide], in assay [1], the IC50 is at most 100 nM and the inhibition at 1 µM is at least 75%. Moreover, in assay [2], the IC50 was 1000 to 10000 nM and the inhibition at 1 µM is 0 to 25%. The inhibition at 5 mg/kg in assay [3] is 0 to 25%.
Take `CC(=O)Nc1ccn(C(=O)N2CCC3(CCCN3Cc3cc(Oc4cncnc4)cc(C(F)(F)F)c3)CC2)n1` [Example 84, N-(1-(1-(3-(pyrimidin-5-yloxy)-5-(trifluoromethyl)benzyl)-1,8-diazaspiro[4.5]decane-8-carbonyl)-1H-pyrazol-3-yl)acetamide]: in assay [1], the IC50 is at most 100 nM and the inhibition at 1 µM was at least 75%. Besides, in assay [2], the IC50 is 1000 to 10000 nM and the inhibition at 1 µM was in the range of 0 to 25%. Moreover, the inhibition at 5 mg/kg in assay [3] fell in the range of 0 to 25%.
As for `CC(=O)Nc1ccn(C(=O)N2CCC3(CCCN3Cc3ccc(C(F)(F)F)cc3Oc3nc4ccccc4s3)CC2)n1` [Example 85, N-(1-(1-(2-(benzo[d]thiazol-2-yloxy)-4-(trifluoromethyl)benzyl)-1,8-diazaspiro[4.5]decane-8-carbonyl)-1H-pyrazol-3-yl)acetamide], the IC50 is at most 100 nM in assay [1] and 1000 to 10000 nM in assay [2]. For the same molecule, the inhibition at 1 µM in assay [1] is at least 75%; in assay [2], 0 to 25%. Moreover, in assay [3], the inhibition at 5 mg/kg fell in the range of 0 to 25%.
As to `CC(=O)Nc1ccn(C(=O)N2CCC3(CCCN3Cc3cc(OC4CCS(=O)(=O)CC4)cc(C(F)(F)F)c3)CC2)n1` [Example 88, N-(1-(1-(3-((1,1-dioxidotetrahydro-2H-thiopyran-4-yl)oxy)-5-(trifluoromethyl)benzyl)-1,8-diazaspiro[4.5]decane-8-carbonyl)-1H-pyrazol-3-yl)acetamide], the IC50 was at most 100 nM in assay [1] and 1000 to 10000 nM in assay [2]. The inhibition at 1 µM in assay [1] is at least 75%; in assay [2], 0 to 25%. The inhibition at 5 mg/kg in assay [3] is 0 to 25%.
Consider `CC(=O)Nc1ccn(C(=O)N2CCC3(CCCN3Cc3cc(OCC(=O)N4CCCC4)cc(C(F)(F)F)c3)CC2)n1` [Example 90, N-(1-(1-(3-(2-oxo-2-(pyrrolidin-1-yl)ethoxy)-5-(trifluoromethyl)benzyl)-1,8-diazaspiro[4.5]decane-8-carbonyl)-1H-pyrazol-3-yl)acetamide], for which, in assay [1], the IC50 was at most 100 nM and the inhibition at 1 µM was at least 75%. Besides, in assay [2], the IC50 is 1000 to 10000 nM and the inhibition at 1 µM fell in the range of 0 to 25%. Besides, the inhibition at 5 mg/kg in assay [3] was in the range of 0 to 25%.
Turning to `CC(=O)Nc1ccn(C(=O)N2CCC3(CCCN3Cc3ccc(C(F)(F)F)c(C)c3)CC2)n1` [Example 93, N-(1-(1-(3-methyl-4-(trifluoromethyl)benzyl)-1,8-diazaspiro[4.5]decane-8-carbonyl)-1H-pyrazol-3-yl)acetamide], in assay [1], the IC50 was at most 100 nM and the inhibition at 1 µM was at least 75%. In assay [2], the IC50 is 1000 to 10000 nM and the inhibition at 1 µM is 0 to 25%. In addition, the inhibition at 5 mg/kg in assay [3] was 50 to 75%.
The matching figures for `CCc1cc(CN2CCCC23CCN(C(=O)n2ccc(NC(C)=O)n2)CC3)ccc1F` [Example 95, N-(1-(1-(3-ethyl-4-fluorobenzyl)-1,8-diazaspiro[4.5]decane-8-carbonyl)-1H-pyrazol-3-yl)acetamide]: at most 100 nM, at least 75%, 1000 to 10000 nM, 0 to 25% and at least 75%.
The matching figures for `CC(=O)Nc1ccn(C(=O)N2CCC3(CCCN3Cc3ccc(N4CCOCC4)c(C(F)(F)F)c3)CC2)n1` [Example 101, N-(1-(1-(4-morpholino-3-(trifluoromethyl)benzyl)-1,8-diazaspiro[4.5]decane-8-carbonyl)-1H-pyrazol-3-yl)acetamide]: at most 100 nM, at least 75%, 1000 to 10000 nM, 0 to 25% and 25 to 50%.
For `CC(=O)Nc1ccn(C(=O)N2CCC3(CCCN3Cc3ccc(N4CCCC4)c(C(F)(F)F)c3)CC2)n1` [Example 102, N-(1-(1-(4-(pyrrolidin-1-yl)-3-(trifluoromethyl)benzyl)-1,8-diazaspiro[4.5]decane-8-carbonyl)-1H-pyrazol-3-yl)acetamide], in assay [1], the IC50 was at most 100 nM and the inhibition at 1 µM was at least 75%. Further, in assay [2], the IC50 lay in the range of 1000 to 10000 nM and the inhibition at 1 µM fell in the range of 0 to 25%. The inhibition at 5 mg/kg in assay [3] lay within 0 to 25%.
For `CC(=O)Nc1ccn(C(=O)N2CCC3(CCCN3Cc3ccc(Cl)c(N4CCOCC4)c3)CC2)n1` [Example 103, N-(1-(1-(4-chloro-3-morpholinobenzyl)-1,8-diazaspiro[4.5]decane-8-carbonyl)-1H-pyrazol-3-yl)acetamide], in assay [1], the IC50 was at most 100 nM and the inhibition at 1 µM was at least 75%. In addition, in assay [2], the IC50 was in the range of 1000 to 10000 nM and the inhibition at 1 µM fell in the range of 0 to 25%. Moreover, in assay [3], the inhibition at 5 mg/kg was in the range of 0 to 25%.
For `CC(=O)Nc1ccn(C(=O)N2CCC3(CCCN3Cc3ccc(Cl)c(N4CCCC4)c3)CC2)n1` [Example 104, N-(1-(1-(4-chloro-3-(pyrrolidin-1-yl)benzyl)-1,8-diazaspiro[4.5]decane-8-carbonyl)-1H-pyrazol-3-yl)acetamide], in assay [1], the IC50 was at most 100 nM and the inhibition at 1 µM was at least 75%. In addition, in assay [2], the IC50 lay in the range of 1000 to 10000 nM and the inhibition at 1 µM was 0 to 25%. Also, in assay [3], the inhibition at 5 mg/kg lay in the range of 0 to 25%.
As for `CC(=O)Nc1ccn(C(=O)N2CCC3(CCCN3Cc3ccc(C(F)(F)F)c(N4CCOCC4)c3)CC2)n1` [Example 105, N-(1-(1-(3-morpholino-4-(trifluoromethyl)benzyl)-1,8-diazaspiro[4.5]decane-8-carbonyl)-1H-pyrazol-3-yl)acetamide], in assay [1], the IC50 was at most 100 nM and the inhibition at 1 µM was at least 75%. For the same molecule, in assay [2], the half-inhibitory concentration (IC50) is 1000 to 10000 nM and the inhibition at 1 µM lay in the range of 0 to 25%. In addition, in assay [3], the inhibition at 5 mg/kg is 25 to 50%.
The matching figures for `CC(=O)Nc1ccn(C(=O)N2CCC3(CCCN3Cc3ccc(C(F)(F)F)c(N4CCCC4)c3)CC2)n1` [Example 106, N-(1-(1-(3-(pyrrolidin-1-yl)-4-(trifluoromethyl)benzyl)-1,8-diazaspiro[4.5]decane-8-carbonyl)-1H-pyrazol-3-yl)acetamide]: at most 100 nM, at least 75%, 1000 to 10000 nM, 0 to 25% and 25 to 50%.
For `CC(=O)Nc1ccn(C(=O)N2CCC3(CCCN3Cc3ccc(C(F)(F)F)c(C(N)=O)c3)CC2)n1` [Example 107, 5-((8-(3-acetamido-1H-pyrazole-1-carbonyl)-1,8-diazaspiro[4.5]decan-1-yl)methyl)-2-(trifluoromethyl)benzamide], in that order: 100 to 1000 nM, at least 75%, 1000 to 10000 nM, 0 to 25% and 0 to 25%.
`CC(=O)Nc1ccn(C(=O)N2CCC3(CCCN3Cc3ccc(C(N)=O)c(C(F)(F)F)c3)CC2)n1` [Example 109, 4-((8-(3-acetamido-1H-pyrazole-1-carbonyl)-1,8-diazaspiro[4.5]decan-1-yl)methyl)-2-(trifluoromethyl)benzamide]: in assay [1], the IC50 was at most 100 nM and the inhibition at 1 µM was at least 75%. In assay [2], the IC50 was in the range of 1000 to 10000 nM and the inhibition at 1 µM lay within 0 to 25%. For the same molecule, the inhibition at 5 mg/kg in assay [3] is 0 to 25%.
On to `CS(=O)(=O)Nc1ccn(C(=O)N2CCN(Cc3cccc(Cl)c3N3CC[C@H](CF)C3)CC2)n1` [Example 121, (S)-N-(1-(4-(3-chloro-2-(3-(fluoromethyl)pyrrolidin-1-yl)benzyl)piperazine-1-carbonyl)-1H-pyrazol-3-yl) methanesulfonamide], for which the IC50 is at most 100 nM in assay [1] and 1000 to 10000 nM in assay [2]. Also, the inhibition at 1 µM is at least 75% in assay [1] and 0 to 25% in assay [2]. For the same molecule, the inhibition at 5 mg/kg in assay [3] was 50 to 75%.

As a reminder, the IC50 is the midpoint of a concentration-inhibition curve.

Values taken from patent US10519134B2, “Pyrazole compounds and methods of making and using same” (Lundbeck La Jolla Research Center, Inc., priority 2015, dated 2019).
